Data on 5 compounds can be found in BindingDB's records for doi:10.1021/acs.jmedchem.8b00789 (Laval University, 2018).

SMILES strings stand for the structures.

Experiment [1] is described as follows: Antagonist activity at UT receptor in Sprague-Dawley rat thoracic aortic ring assessed as reduction in URP-induced contraction by measuring pEC50 for human urotensin-2-induced contraction at 1 x 10^-7M pre-incubated for 30 mins before urotensin-2 stimulation (Rvb = 8.16 +/- 0.08 No_unit).
Experiment [2] can be described thus: Antagonist activity at UT receptor in Sprague-Dawley rat thoracic aortic ring assessed as reduction in URP-induced contraction by measuring pEC50 for human urotensin-2-induced contraction at 3 x 10^-10M pre-incubated for 30 mins before urotensin-2 stimulation (Rvb = 8.16 +/- 0.08 No_unit).
Experiment [3] in a line: Antagonist activity at UT receptor in Sprague-Dawley rat thoracic aortic ring assessed as reduction in urotensin-2-induced contraction by measuring pEC50 for human urotensin-2-induced contraction at 1 x 10^-7M uM pre-incubated for 30 mins before urotensin-2 stimulation (Rvb = 8.59 +/- 0.12 No_unit).
A short description of experiment [4]: Antagonist activity at UT receptor in Sprague-Dawley rat thoracic aortic ring assessed as reduction in urotensin-2-induced contraction by measuring pEC50 for human urotensin-2-induced contraction at 1 x 10^-8M uM pre-incubated for 30 mins before urotensin-2 stimulation (Rvb = 8.59 +/- 0.12 No_unit).
A short description of experiment [5]: Antagonist activity at UT receptor in Sprague-Dawley rat thoracic aortic ring assessed as reduction in URP-induced contraction by measuring pEC50 for human urotensin-2-induced contraction at 1 uM pre-incubated for 30 mins before urotensin-2 stimulation (Rvb = 8.16 +/- 0.08 No_unit).
The nature of experiment [6]: Antagonist activity at UT receptor in Sprague-Dawley rat thoracic aortic ring assessed as reduction in urotensin-2-induced contraction by measuring pEC50 for human urotensin-2-induced contraction at 1 uM pre-incubated for 30 mins before urotensin-2 stimulation (Rvb = 8.59 +/- 0.12 No_unit).

In general, EC50 refers to the concentration needed to bring the measured effect to its halfway point. With `CC(C)[C@H](NC(=O)[C@@H]1CSSC[C@H](NC(=O)[C@H](C)N)C(=O)N[C@@H](Cc2ccc(-c3ccccc3)cc2)C(=O)N[C@@H](Cc2c[nH]c3ccccc23)C(=O)N[C@@H](CCCCN)C(=O)N[C@@H](Cc2ccc(O)cc2)C(=O)N1)C(=O)O`, the EC50 in experiment [1] came to 112 nM; in experiment [2] it was 35 nM; in experiment [3], 17 nM; in experiment [4], 7.2 nM.

Turning to `CC(C)[C@H](NC(=O)[C@@H]1CSSC[C@H](NC(=O)[C@@H](N)CC(=O)O)C(=O)N[C@H](Cc2ccc(I)cc2)C(=O)N[C@@H](Cc2c[nH]c3ccccc23)C(=O)N[C@@H](CCCCN)C(=O)N[C@@H](Cc2ccc(O)cc2)C(=O)N1)C(=O)O`, the EC50 in experiment [5] is 12 nM; in experiment [6], 1.1 nM.

For the compound `CC(C)[C@H](NC(=O)[C@@H]1CSSC[C@H](NC(=O)[C@H](C)N)C(=O)N[C@H](Cc2ccc(I)cc2)C(=O)N[C@@H](Cc2c[nH]c3ccccc23)C(=O)N[C@@H](CCCCN)C(=O)N[C@@H](Cc2ccc(O)cc2)C(=O)N1)C(=O)O`, the EC50 in experiment [5] is 13 nM; in experiment [6] it was 3.2 nM.

Regarding `CC(C)[C@H](NC(=O)[C@@H]1CSSC[C@H](NC(=O)[C@H](C)N)C(=O)N[C@H](Cc2ccc(C#Cc3ccccc3)cc2)C(=O)N[C@@H](Cc2c[nH]c3ccccc23)C(=O)N[C@@H](CCCCN)C(=O)N[C@@H](Cc2ccc(O)cc2)C(=O)N1)C(=O)O`, the EC50 in experiment [5] amounted to 18 nM; in experiment [6], 5.4 nM.

`CC(C)[C@H](NC(=O)[C@@H]1CSSC[C@H](NC(=O)[C@H](C)N)C(=O)N[C@H](Cc2ccc(-c3ccccc3)cc2)C(=O)N[C@@H](Cc2c[nH]c3ccccc23)C(=O)N[C@@H](CCCCN)C(=O)N[C@@H](Cc2ccc(O)cc2)C(=O)N1)C(=O)O`: the EC50 in experiment [5] turned out to be 2.8 nM; in experiment [6], 6.8 nM.
